{"source": "patent US20150057316A1", "about": "“NOVEL SULFONATE-BASED TRIMEBUTINE SALTS” (GICARE PHARMA INC., priority 2012, published 2015)", "key": {"male Balb/C mice": {"tested_on": "male Balb/C mice", "assay": "preliminary toxicological evaluation following i.p. administration in mice", "format": "in vivo", "conditions": "50 mg/kg i.p.", "description": "A preliminary toxicological evaluation of the compound was done in 6-8 week old male Balb/C mice. […] Following administration of the test article, animals were observed hr for the first 8 hr post-dosing for clinical signs and twice daily thereafter until termination on Day 7. Body weights were determined on Days 1, 2, 3 and 7. Three mice were sacrificed by exsanguination at 24 hr post dosing or on Day 7, and a gross necropsy was performed in all animals. Particular attention was paid to the abdominal, thoracic and cranial cavities for reporting of any unusual observations."}, "Sprague-Dawley rats": {"tested_on": "Sprague-Dawley rats", "assay": "single dose acute and 7-day range-finding oral toxicity study in rats", "format": "in vivo", "description": "Consequently, a single dose acute and 7-day range-finding oral toxicity study in Sprague-Dawley rats was conducted. During the single dose acute phase of the study, the test article was administered as a single dose by oral gavage to groups of 3 male and 3 female Sprague-Dawley rats, each group receiving a higher or lower dose level, based on the reaction of the previous group during the first day of the observation period.\nUpon completion of the 7-day treatment period, all animals were euthanized and subjected to a gross necropsy examination (Day 8 study). Clinical signs (ill health, behavioral changes, etc.) were recorded on all surviving animals. Clinical pathology evaluations (hematology, clinical chemistry and coagulation parameters) were performed on all surviving animals (single dose acute & range-finding phases) prior to their scheduled necropsy. Blood samples were collected terminally from the abdominal aorta (while anesthetized with isoflurane)."}}}
{"compound": "CCC(COC(=O)c1cc(OC)c(OC)c(OC)c1)(c1ccccc1)N(C)C.NC(=S)c1cccc(S(=O)(=O)O)c1", "note": "(stereo not drawn) [Example 20]", "values": [{"measurement": "tolerability", "setting": "male Balb/C mice", "result": "well-tolerated"}, {"measurement": "macroscopic finding at gross necropsy", "setting": "male Balb/C mice; 24 hr or Day 7", "result": "no significant macroscopic finding"}, {"measurement": "clinical signs", "setting": "male Balb/C mice; 7 days", "result": "no clinical signs were noted"}, {"measurement": "mortality", "setting": "male Balb/C mice; 7 days", "result": "no mortality"}, {"measurement": "body weights", "setting": "male Balb/C mice; Days 1, 2, 3 and 7", "result": "remained stable"}, {"measurement": "dose well tolerated over 7 days without significant clinical signs of toxicity", "setting": "Sprague-Dawley rats; male and female rats, once daily oral gavage, 7 days", "result": "1,000 mg/kg"}, {"measurement": "death and clinical signs of toxicity", "setting": "Sprague-Dawley rats; male and female rats, single oral dose up to 2,000 mg/kg", "result": "no death and no significant clinical signs of toxicity"}, {"measurement": "single dose well-tolerated", "setting": "Sprague-Dawley rats; male and female rats, single oral gavage", "result": "up to 2,000 mg/kg"}, {"measurement": "deaths during 7-day repeat dose regimen", "setting": "Sprague-Dawley rats; rats, 2,000 mg/kg once daily p.o., deaths after 3 and 5 days", "result": "two animals from the 2,000 mg/kg dose group died"}]}
